Where two headings read alike, the source gives them in different places.
Key:
[1] = target: T1, Hes1 dimer formation (Hes1-Hes1 interaction) (Rattus norvegicus, UniProt Q04666); assay: Hes1-Hes1 interaction fluorescent plate assay (Hes1 dimer formation inhibition); type: binding; conditions: for remaining activity at 5 µM: 5 μM compound; for remaining activity at 100 µM: 100 μM compound
T1 construct: Glutathione-S-transferase (GST) fused rat Hes1(3–281) protein was expressed in Escherichia coli; GST (N, cleaved yes); GST (N); made in house; host or cells: Escherichia coli JM109 (pGEX-ratHes1 3-281)
T1 sequence (Q04666 3-281): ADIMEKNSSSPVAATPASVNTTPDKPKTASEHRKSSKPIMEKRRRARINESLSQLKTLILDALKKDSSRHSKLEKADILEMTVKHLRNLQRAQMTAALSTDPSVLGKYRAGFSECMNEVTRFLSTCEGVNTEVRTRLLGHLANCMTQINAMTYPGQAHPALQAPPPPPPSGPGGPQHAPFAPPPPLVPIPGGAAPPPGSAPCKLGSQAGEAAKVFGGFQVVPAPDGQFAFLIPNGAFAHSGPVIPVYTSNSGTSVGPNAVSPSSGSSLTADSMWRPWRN
Description: It is essential to inhibit undesired PPIs in drug development, and bioactivity-guided isolation using the inhibitory activity of PPIs is an attractive method to obtain effective inhibitors. However, currently there are only a few examples of such approaches using PPI assay systems[22],[23]. We previously developed a Hes1-Hes1 interaction fluorescent plate assay and reported the screening results of our natural products compound library (Fig. 2A)[24]. Glutathione-S-transferase (GST) fused rat Hes1(3–281) protein was expressed in Escherichia coli and purified rat Hes1 protein was immobilized on the bottom of 96 well plates. We prevented GST-GST interactions, which would result in false positives, by preparing GST-free Hes1 protein by GST cleavage with Turbo3C protease. After labeling Hes1 with Cy3, this florescent Hes1 protein was added to the wells of the above plate and incubated for 24 h at 4 °C. Hes1-Hes1 interaction was successfully detected as Cy3 fluorescence intensity. Using this assay system, we screened our 118 plant extract library and identified the MeOH extract of Psidium guajava leaves to contain naturally occurring compounds that inhibit Hes1 dimer formation. The MeOH extract (29.9 g) was fractionated using Diaion HP-20 with a MeOH-acetone solvent system to afford fractions 1A to 1C. Active fraction 1A (27.2 g) was suspended in 10% aq. MeOH and partitioned with hexane, EtOAc and BuOH to obtain hexane (1.1 g), EtOAc (5.7 g), BuOH (4.7 g) and aqueous (18.9 g) soluble fractions. Part of the active BuOH soluble fraction was subjected to ODS column chromatography and reverse-phase HPLC. Activity-guided separation yielded ten compounds (1–10; Fig. 3). The isolated compounds were identified as morin (1)[25], isoquercitrin (2)[26], methyl gallate (3)[27], (+)-catechin (4)[28],[29], dihydrophaseic acid (5)[30], quercetin (6)[26],[31], avicularin (7)[32],[33], gallic acid (8)[34], protocatechuic acid (9)[35] and 4-hydroxybenzoic acid (10)[36] based on comparisons of their spectral data with spectra in the literature.
Hes1-bound microplate wells[24] (Nunc Immobilizer^TM Amino Plate, Thermo) were incubated with 50 μL of Cy3-labeled-Hes1 in NET-N buffer (NET buffer (20 mM Tris-HCl, pH 7.5, 200 mM NaCl, 1 mM EDTA) containing 0.05% Nonidet® P-40, ca. 7 mg/L, dye/protein = 0.4) for 24 h at 4 °C. After removing the protein solution, the wells were washed twice with 200 μL of PBST, then each compound solution (in NET-N buffer, 50 μL) was added and the plates were incubated for 1 h at RT in the dark. The wells were washed twice with 200 μL of PBST, then dried under reduced pressure for 1 h in the dark. The Cy3 dye was excited at 544 nm and emission was monitored at 590 nm using a microplate reader (Fluoroskan Ascent, Thermo Labsystems, Vantaa, Finland). The assays were typically carried out in three individual wells, and the mean value and SD were calculated. The equilibrium between dimer formation between Cy3-Hes1/Cy3-Hes1 (in solution) and Cy3-Hes1/immobilized-Hes1 allowed the detection of Cy3-Hes1/immobilized-Hes1.
Typical procedure; Nunc Immobilizer^TM Amino 96 well Plate, white (Nalge Nunc Int., NY, USA) was used for immobilizing of Hes1. The micro plate wells were incubated with 100 µl of Hes1 (10 µg/mL in PBS) 2 h at 4 °C. After removing protein solution, the wells were incubated for 2 h at 4 °C with 100 µL of 10 mM ethanolamine (in 100 mM Na2CO3 buffer, pH 9.6) to block remaining activated units on the well. Then, wells were washed twice with 200 µL of PBST (PBS containing 0.05% Tween 20).
The Cy3 dye reagent was prepared as 1 vial of Cy3 monofunctional dye reagent (succinimidylester type; GE Healthcare, Buckinghamshire, UK) in DMSO (50 µL) and stored at -20 °C. Cy3-labeled Hes1 was prepared by mixing of protein in PBS with Cy3 dye reagent in DMSO (typically 0.6 µL of DMSO solution to 1 mL of 10 mg/L protein solution in PBS) for 30 min at 4 °C in the dark. […]

[2] = system: C17.2 mouse neural stem cells; assay: Neural stem cell differentiation assay (Tuj1/GFAP immunofluorescence staining); type: cell-based; conditions: C17.2 cells, 5 μM, 6 days, positive control
Description: We recently developed another protein-based screening method, the target protein oriented natural products isolation method (TPO-NAPI) using protein beads (Fig. 2B). Agalloside, inohanamine, α-mangostine, BE-14106, isomicromonolactam, staurosporin and linarin were isolated as Hes1 binding compounds using the TPO-NAPI method[15],[17]. Rat Hes1 (1–95) containing basic and helix-loop-helix domains was immobilized because the helix-loop-helix domain is known to be important for Hes1-Hes1 interaction; therefore, utilizing this domain in the beads method would likely be effective for screening Hes1 dimer inhibitors. GST-Hes1 immobilized beads were prepared by mixing freshly prepared GST-Hes1 protein with glutathione Sepharose 4B beads. GST-only beads were prepared as a control. After incubating the beads with plant MeOH extracts at 4 °C for 2 h, bound compounds were eluted by adding EtOH and heating at 100 °C for 3 min, then the eluted compounds were analyzed by HPLC. […] The MeOH extract (64.6 g) of Terminalia chebula bark was partitioned with hexane, EtOAc and BuOH to obtain hexane (1.5 g), EtOAc (3.6 g), BuOH (42.6 g), and aqueous (20.5 g) soluble fractions. The EtOAc fraction contained the target peak and was subjected to silica gel column chromatography to give eight fractions (1A-H). Fraction 1D contained the target peak and was separated by ODS column chromatography and reverse-phase HPLC to give compound 11 (0.4 mg). Compound 11 was identified as 4-O-(4″-O-galloyl-α-L-rhamnopyranosyl)ellagic acid by comparison of its NMR data with reported spectral data[37]. […] This is the strongest Hes1 dimer inhibitor reported to date. The ability of 11 to accelerate the differentiation of C17.2 mouse neural stem cells was evaluated (Fig. 5). C17.2 cells (2 × 10^5 cells/mL) were seeded in a poly-L-lysine-coated 24 well plates and incubated for 24 h, then the cells were treated with DMSO (control), 100 μM valproic acid (VPA), 5 μM retinoic acid (RA) (positive controls) or 11 (1 or 5 μM) for 6 days. A confocal microscope was used to obtain images of differentiated neural cells after immunostaining class III β-tubulin (Tuj1) in neurons, and glial fibrillary acidic protein (GFAP) in astrocytes and nuclei (TO-PRO-3). […] In contrast, the control dish containing cells treated with DMSO contained small number of neurons.
C17.2 cells were cultured in proliferation medium [DMEM (DS Pharma Biomedical Co., Ltd. Osaka, Japan) supplemented with 10% fetal bovine serum (Biowest, Nuaillé, France), 5% horse serum (Gibco, Life Technologies, Tokyo, Japan)]. Neural differentiation of C17.2 cells was initiated by transferring the cells to differentiation medium [Neurobasal Medium (Gibco) supplemented with 2% B-27 without vitamin A (Gibco), 1% antibiotic-antimycotic (Gibco)]. All cultures were maintained in a humidified incubator at 37 °C in 5% CO2/95% air.
C17.2 cells were dissociated using the proliferation medium 2 × 10^5 cells/mL on cover glass (MATSUNAMI GLASS) coated with poly-L-lysine and fibronectin/laminin. After incubation for 24 h, cells were washed with D-MEM and treated with individual compounds in differentiation medium for 6 days.
C17.2 cells were fixed with 4% paraformaldehyde in PBS for 20 min at room temperature (r.t.) and washed with 1% BSA in PBS three times. After blocking with 10% BSA in 0.3% Triton X-100 in PBS for 45 min at r.t., fixed cells were incubated with primary antibodies (anti-βIII-Tubulin; Neuronal Class III, Mouse-Mono, 1:400, R&D Systems^TM; anti-GFAP, 1:400, VERITAS) for 12 h at 4 °C. After washing three times with 1% BSA in PBS (500 μL/well), cells were incubated with secondary antibodies (Alexa Fluor® 488 goat anti-mouse IgG (H + L), 1:400, Life Technologies; Alexa Fluor® 555 goat ant-rabbit IgG (H + L), 1:200, Life Technologies) for 1 hr at r.t. in the dark. […]

[3] = Hes1 dimer formation inhibitory activity IC50, Cy3-labeled Hes1 / immobilized Hes1, compound 1 h at RT
[4] = 24 h, 0 μM = 100, read-out: Hes1 dimer formation rate (%)
[5] = 24 h, 25 μM compound, 0 μM = 100, read-out: Hes1 dimer formation rate (%)
[6] = 24 h, 50 μM compound, 0 μM = 100, read-out: Hes1 dimer formation rate (%)
[7] = Cy3-labeled Hes1 / immobilized Hes1, compound 1 h at RT, read-out: Hes1 dimer formation inhibitory activity IC50
[8] = 24 h, 10 μM compound, 0 μM = 100, read-out: Hes1 dimer formation rate (%)
[9] = 24 h, read-out: Hes1 dimer formation rate (%)

Compound	remaining activity at 5 µM [1, 4]	remaining activity at 25 µM [1, 5]	remaining activity at 50 µM [1, 6]	IC50 [1, 7]	also measured
O=C(O)c1cc(O)c(O)c(O)c1 [Commercially available gallic acid, gallic acid, reference compound]					IC50 [1, 3]: 8.9 µM
O=c1c(O)c(-c2ccc(O)cc2O)oc2cc(O)cc(O)c12 [Compound 1, morin]	89.7%	79.2%	37.8%	40.8 µM	
O=c1c(O[C@@H]2O[C@H](CO)[C@@H](O)[C@H](O)[C@H]2O)c(-c2ccc(O)c(O)c2)oc2cc(O)cc(O)c12 [Compound 2, isoquercitrin]				35.7 µM	remaining activity at 20 µM ([1]; 24 h, 20 μM compound, 0 μM = 100, read-out: Hes1 dimer formation rate (%)): 67.2%; remaining activity at 60 µM ([1]; 24 h, 60 μM compound, 0 μM = 100, read-out: Hes1 dimer formation rate (%)): 34.5%; remaining activity at 80 µM ([1]; 24 h, 80 μM compound, 0 μM = 100, read-out: Hes1 dimer formation rate (%)): 28.3%
COC(=O)c1cc(O)c(O)c(O)c1 [Compound 3, methyl gallate]	68.4%	39.2%		12.7 µM	remaining activity at 10 µM [1, 8]: 54.3%
Oc1cc(O)c2c(c1)O[C@H](c1ccc(O)c(O)c1)[C@@H](O)C2 [Compound 4, (+)-catechin]		95.4%	79.2%		remaining activity at 100 µM [1, 4]: 78.8%
CC(C=CC1(O)C2(C)COC1(C)CC(O)C2)=CC(=O)O (stereo not shown) [Compound 5, dihydrophaseic acid]		125%	122%		remaining activity at 100 µM [1, 4]: 127%
O=c1c(O)c(-c2ccc(O)c(O)c2)oc2cc(O)cc(O)c12 [Compound 6, quercetin]			35.7%	45.1 µM	remaining activity at 30 µM ([1]; 24 h, 30 μM compound, 0 μM = 100, read-out: Hes1 dimer formation rate (%)): 82.5%; remaining activity at 40 µM ([1]; 24 h, 40 μM compound, 0 μM = 100, read-out: Hes1 dimer formation rate (%)): 66.5%
O=c1c(O[C@@H]2O[C@@H](CO)[C@H](O)[C@H]2O)c(-c2ccc(O)c(O)c2)oc2cc(O)cc(O)c12 [Compound 7, avicularin]	74.6%	51.3%	23.8%	26.5 µM	
O=C(O)c1cc(O)c(O)c(O)c1 [Compound 8, gallic acid]	53.9%	26.2%			remaining activity at 10 µM [1, 8]: 50.7%; IC50 [1, 3]: 10.3 µM
O=C(O)c1ccc(O)c(O)c1 [Compound 9, protocatechuic acid]				23.8 µM	remaining activity at 10 µM [1, 9]: 61.7%; remaining activity at 25 µM [1, 9]: 49.3%; remaining activity at 50 µM [1, 9]: 44.9%
O=C(O)c1ccc(O)cc1 [Compound 10, 4-hydroxybenzoic acid]		58.8%	50.4%	51.2 µM	remaining activity at 100 µM [1, 4]: 39.8%
CC1=C(/C=C/C(C)=C/C=C/C(C)=C/C(=O)O)C(C)(C)CCC1 [RA, retinoic acid, reference compound]					number of neurons [2]: increased

— paper PMC6987128, “Target protein-oriented isolation of Hes1 dimer inhibitors using protein based methods” (Scientific Reports, 2020)
